# Assay results reported in patent EP0310585B1, “Octapeptide inhibitors of myristoylating enzymes” (WASHINGTON UNIVERSITY, priority 1987, dated 1989).
# Where no end group is shown, it is not given here.
# Key:
# [1] = target: T1, N-myristoylglycylpeptide synthetase (N-myristoyl transferase or NMT) (Saccharomyces cerevisiae, UniProt P14743); assay: Octapeptide substrate specificity / kinetic characterization with partially purified yeast myristoylating enzyme (Table II); assay type: biochemical
# T1 construct: endogenous in cells; host or cells: S. cerevisiae strain JR153
# T1 sequence (P14743 1-455): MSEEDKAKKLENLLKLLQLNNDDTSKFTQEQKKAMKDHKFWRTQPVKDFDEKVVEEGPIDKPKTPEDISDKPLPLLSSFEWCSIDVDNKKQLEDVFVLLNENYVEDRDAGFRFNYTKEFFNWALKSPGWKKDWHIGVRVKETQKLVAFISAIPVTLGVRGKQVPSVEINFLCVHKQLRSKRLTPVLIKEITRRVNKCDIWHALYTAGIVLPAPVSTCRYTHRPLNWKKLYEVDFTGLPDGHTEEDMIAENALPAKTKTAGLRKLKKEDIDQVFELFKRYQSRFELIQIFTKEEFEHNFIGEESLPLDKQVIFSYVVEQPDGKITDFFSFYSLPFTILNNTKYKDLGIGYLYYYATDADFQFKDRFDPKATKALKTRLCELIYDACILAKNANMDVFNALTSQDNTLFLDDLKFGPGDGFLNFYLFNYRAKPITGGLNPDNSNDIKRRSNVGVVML
# Protocol: The synthetic octapeptides I and II were initially used to identify a unique enzymatic activity which transfers myristic acid to the amino terminal glycine of this and other peptides. […] The enzyme activity was determined in an in vitro assay which measures the transfer of [³H]-myristic acid to the acceptor peptide, […]. The transfer reaction is dependent on adenosine triphosphate (ATP) and coenzyme A (CoA). The enzymatic product was then identified by high performance liquid chromatography (HPLC) by co-elution with a chemically synthesized myristoyl peptide standard. […] Both contained M-myristoyl glycine.
# Assay for N-myristoylglycylpeptide synthetase activity. [³H]Fatty acyl CoA was synthesized enzymatically and added to the incubation as follows. […] Typically, 40% to 50% of the [³H]fatty acid was converted to its CoA ester by this procedure as measured by determining the radioactivity remaining in the reaction after acidification with 6 N HCl to pH 2.0 and extraction 6 times with 5 volumes of heptane, a modification of the method of Hosaka et al., Meth. […] One minute fractions were collected and the radioactivity in each fraction determined by liquid scintillation counting. […]
# [2] = target: T2, N-myristoylglycylpeptide synthetase (Saccharomyces cerevisiae, UniProt P14743); assay: Assay for N-myristoylglycylpeptide synthetase activity, crude yeast membrane fractions (Table I); assay type: biochemical; conditions: Test 3: + 1 mM peptide, 18 µM peptide substrate GlyAsnAlaAlaAlaAlaArgArg, control 26.7
# T2 construct: A protease-deficient strain of Saccharomyces cerevisiae, JR153 [Hemmings et al., Proc. Natl. Acad. Sci. USA 78, 435-439 (1981)], was used as a source of N-myristoylglycylpeptide synthetase; endogenous in cells; host or cells: S. cerevisiae strain JR153, crude membrane pellet of cell lysate
# T2 sequence (P14743 1-455): T1 sequence (P14743 1-455)
# Protocol: Preparation of yeast extract for the assay of N-myristoylglycylpeptide synthetase activity. Yeast cultures were grown as described above to O.D. 660 nm of 1 to 3. Cells from 40 ml of culture were collected by centrifugation at 4°C at 7600 x g for 10 minutes. The supernatant was decanted, the cell pellet was resuspended by pipetting into 1 ml of cold 10 mM Tris, pH 7.4, transferred to a 1.5 ml conical polypropylene centrifuge tube, and the cells were then repelleted at 4°C at 7600 x g for 10 minutes. […] Protein was determined by the method of Peterson, Anal. Biochem. 83, 346-356 (1977).
# Assay for N-myristoylglycylpeptide synthetase activity. […] Typically, 40% to 50% of the [³H]fatty acid was converted to its CoA ester by this procedure as measured by determining the radioactivity remaining in the reaction after acidification with 6 N HCl to pH 2.0 and extraction 6 times with 5 volumes of heptane, a modification of the method of Hosaka et al., Meth. […] (Under these conditions, 95% of synthetic [³H]myristoylpeptide or [³H]palmitoylpeptide remined soluble when added to an assay mixture.) Fifty microliters of the supernatant were mixed with 75 µl methanol and 75 µl of HPLC buffer A, and analyzed by reverse phase HPLC on a 3.9 mm by 30 cm Waters µ-Bondapak C₁₈ column using the same HPLC buffers described above, starting at 35% acetonitrile and eluting with a 1% per minute acetonitrile gradient. […]
Substance,Ki [1] [µM],Rate of Myristoylpeptide Synthesis [2] [DPM x 10⁻³ /10 min]
GNANSARR-NH2 [Gly-Asn-Ala-Asn-Ser-Ala-Arg-Arg],0.3,–
GSSKSPKDPS [a decapeptide containing N-terminal glycine],–,27.4
GNAAKARR-NH2 [Gly-Asn-Ala-Ala-Lys-Ala-Arg-Arg],50,–
GPRP,–,25.6
